Patent US20050096327A1, “Novel norepinephrine reuptake inhibitors for the treatment of central nervous system disorders” (priority 2003, published 2005)
Structures can show the parent of a compound that is named as a salt.

Assays:
[1] = target: T1, human norepinephrine transporter (Homo sapiens, UniProt P23975); assay: hNET receptor binding ([125I]-RTI-55, membranes of transfected HEK-293 cells); conditions: 50 pM [125I]-RTI-55, 90 min room temperature; IC50 converted by Cheng-Prusoff
T1 construct: host or cells: HEK-293
T1 sequence (P23975 whole entry): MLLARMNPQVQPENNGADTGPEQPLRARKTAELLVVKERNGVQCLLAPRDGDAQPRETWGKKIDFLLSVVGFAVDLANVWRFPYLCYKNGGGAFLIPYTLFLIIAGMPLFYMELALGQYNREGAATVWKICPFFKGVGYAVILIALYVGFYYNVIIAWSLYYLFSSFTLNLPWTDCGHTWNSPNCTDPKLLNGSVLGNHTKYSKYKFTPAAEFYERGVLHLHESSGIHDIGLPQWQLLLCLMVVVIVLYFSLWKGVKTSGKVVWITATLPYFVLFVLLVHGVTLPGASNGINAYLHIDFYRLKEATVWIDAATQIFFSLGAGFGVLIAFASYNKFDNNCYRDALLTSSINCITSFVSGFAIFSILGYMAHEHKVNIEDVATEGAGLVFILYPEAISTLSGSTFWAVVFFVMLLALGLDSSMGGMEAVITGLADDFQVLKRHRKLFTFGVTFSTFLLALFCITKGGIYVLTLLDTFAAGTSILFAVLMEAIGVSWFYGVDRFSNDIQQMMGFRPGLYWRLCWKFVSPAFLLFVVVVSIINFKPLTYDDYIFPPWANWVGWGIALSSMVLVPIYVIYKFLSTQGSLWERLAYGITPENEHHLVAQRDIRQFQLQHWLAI
In short: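 Competition binding on membranes from HEK-293 cells transfected with human NET, using 50 pM [125I]-RTI-55 in Krebs-HEPES pH 7.4, drug 10^−5 to 10^−12 M in duplicate, 90 min at room temperature, filtration. Nonspecific binding defined with 10 μM desipramine; IC50 converted to Ki by Cheng-Prusoff.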

[2] = target: T2, human serotonin transporter (Homo sapiens, UniProt P31645); assay: hSERT receptor binding ([125I]-RTI-55, membranes of transfected HEK-293 cells); conditions: 50 pM [125I]-RTI-55, 90 min room temperature; IC50 converted by Cheng-Prusoff
T2 construct: host or cells: HEK-293
T2 sequence (P31645 whole entry): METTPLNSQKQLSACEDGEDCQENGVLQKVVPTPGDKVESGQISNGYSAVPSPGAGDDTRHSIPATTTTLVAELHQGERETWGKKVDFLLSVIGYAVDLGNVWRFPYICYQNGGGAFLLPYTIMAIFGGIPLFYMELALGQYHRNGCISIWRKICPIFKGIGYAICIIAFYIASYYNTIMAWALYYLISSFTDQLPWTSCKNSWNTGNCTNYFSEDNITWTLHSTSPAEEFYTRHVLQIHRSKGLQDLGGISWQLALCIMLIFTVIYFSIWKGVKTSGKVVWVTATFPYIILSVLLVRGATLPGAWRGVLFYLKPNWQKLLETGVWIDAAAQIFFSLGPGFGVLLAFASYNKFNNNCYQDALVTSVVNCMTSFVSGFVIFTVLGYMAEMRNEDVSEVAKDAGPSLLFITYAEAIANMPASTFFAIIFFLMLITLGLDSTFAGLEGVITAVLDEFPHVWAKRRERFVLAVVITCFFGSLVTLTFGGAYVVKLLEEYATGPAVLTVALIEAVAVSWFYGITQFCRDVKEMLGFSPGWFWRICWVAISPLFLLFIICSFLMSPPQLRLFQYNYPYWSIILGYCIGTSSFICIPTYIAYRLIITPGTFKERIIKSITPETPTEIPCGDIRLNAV
Experimental: Cell pastes of HEK-293 cells transfected with the human serotonin transporter were supplied by the Pfizer Ann Arbor Protein Expression and Production Group. Pellets were resuspended in 400 to 700 mL of Krebs-HEPES assay buffer (25 mM HEPES, 122 mM NaCl, 3 mM KCl, 1.2 mM MgSO4, 1.3 mM CaCl2, and 11 mM glucose, pH 7.4) with a Polytron homogenizer at Setting 7 for 30 seconds. Aliquots of membranes (˜2.5 mg/mL protein) were stored in liquid nitrogen until used.
Assays were set up in FlashPlates pre-coated with 0.1% PEI in a total volume of 250 μL containing: drug (10^−5M to 10^−12M), cell membranes, and 50 pM [^125I]-RTI-55 (Perkin Elmer, NEX-272; specific activity 2200 Ci/mmol). The reaction was incubated and gently agitated for 90 minutes at room temperature, and terminated by removal of assay volume. Plates were covered, and bound [^125I]-RTI-55 was determined using a Wallac Trilux Beta Plate Counter. Test compounds were run in duplicate, and specific binding was defined as the difference between binding in the presence and absence of 10 μM citalopram.
Excel and GraphPad Prism software were used for data calculation and analysis. IC50 values were converted to Ki values using the Cheng-Prusoff equation. The Ki values for the hSERT are reported below in Table 1.

Compound	melting point [°C]	Ki [1] [nM]	Ki [2] [nM]
Fc1ccc(-c2nc(N3CCNCC3)nc3ccccc23)c(Cl)c1 (as salt: salt) [Example 61, 4-(2-Chloro-4-fluoro-phenyl)-2-piperazin-1-yl-quinazoline]	248 to 251		
c1ccc(-c2nc(N3CC4CNCC4C3)nc3ccccc23)cc1 (centres unmarked) (as salt: salt) [Example 81, 2-(Hexahydro-pyrrolo[3,4-c]pyrrol-2-yl)-4-phenyl-quinazoline]	267 to 270		
COC(=O)C1(c2nc(-c3ccccc3)c3ccccc3n2)CCNCC1.Cl [Example 50, 4-(4-Phenyl-quinazolin-2-yl)piperidine-4-carboxylic acid methyl ester hydrochloride]	227 to 228	9.8	
Fc1cccc(F)c1-c1nc(N2CCNCC2)nc2ccccc12 (as salt: hydrochloride) [Example 29, 4-(2,6-Difluoro-phenyl)-2-piperazin-4-yl-quinazoline hydrochloride]	295 to 297		
CN[C@H]1CCN(c2nc(-c3ccccc3F)c3ccccc3n2)C1 (as salt: hydrochloride) [Example 35, (S)-(+)-1-[4-(2-Fluoro-phenyl)-quinazolin-2-yl]-pyrrolidin-3-yl}-methyl-amine hydrochloride]	257 to 258		
C[C@@H]1CN(c2nc(-c3ccccc3)c3ccccc3n2)CCN1 (as salt: salt) [Example 31, (R)-(+)-2-(3-Methyl-piperazin-1-yl)-4-phenyl-quinazoline]	241 to 242		
Cl.c1ccc(-c2nc(C3CCCNC3)nc3ccccc23)cc1 (centres unmarked) (hydrate or solvate)	231 to 232		
S-4-(2,4-Difluoro-phenyl)-7-fluoro-2-(2-methyl-piperazin-1-yl)-quinazoline [Example 139]		30.7	24.9
CN1CCN(c2nc(-c3ccc(F)c(F)c3)c3ccc(F)cc3n2)CC1 [Example 112, 4-(3,4-Difluoro-phenyl)-7-fluoro-2-(4-methyl-piperazin-1-yl)-quinazoline]		707	204
Fc1ccc2c(-c3cccc(F)c3F)nc(N[C@@H]3CCNC3)nc2c1 [Example 116, R-[4-(2,3-Difluoro-phenyl)-7-fluoro-quinazolin-2-yl]-pyrrolidin-3-yl-amine]		138	963
Brc1ccc2nc(N3CCNCC3)nc(-c3ccccc3)c2c1 [Example 91, 6-Bromo-4-phenyl-2-piperazin-1-yl-quinazoline]		211	31.4
Fc1cccc(-c2nc(NC3CCNCC3)nc3ccccc23)c1F [Example 156, [4-(2,3-Difluoro-phenyl)-quinazolin-2-yl]-piperidin-4-yl-amine]		221	6980
NCCCNc1nc(-c2cccc(F)c2F)c2ccccc2n1 [Example 159, N1-[4-(2,3-Difluoro-phenyl)-quinazolin-2-yl]-propane-1,3-diamine]		123	> 10000

The remaining compounds from weak to strong by Ki [1], led by results:

melting point [°C]	Ki [1] [nM]	Ki [2] [nM]	Compound
	102	1920	Fc1ccc(-c2nc(NC3CNC3)nc3cc(F)ccc23)c(F)c1 [Example 141, Azetidin-3-yl-[4-(2,4-difluoro-phenyl)-7-fluoro-quinazolin-2-yl]-amine]
	90.6	91.4	Fc1ccc(-c2nc(N3CC[C@@H]4CNC[C@@H]43)nc3cc(F)ccc23)c(F)c1 [Example 142, R,R-4-(2,4-Difluoro-phenyl)-7-fluoro-2-(hexahydro-pyrrolo[3,4-b]pyrrol-1-yl)-quinazoline]
216 to 217	67.4		CN1CCN(c2nc(-c3cccs3)c3ccccc3n2)CC1.O=C(O)C(=O)O [Example 27, 2-(4-Methyl-piperazin-1-yl)-4-thiophen-2-yl-quinazoline oxalate]
	67.2	49	Cc1cc(F)ccc1-c1nc(N2CCNCC2)nc2cc(Cl)ccc12 [Example 118, 7-Chloro-4-(4-fluoro-2-methyl-phenyl)-2-piperazin-1-yl-quinazoline]
	56.8	313	Fc1ccc2c(-c3nccs3)nc(N3CCNCC3)nc2c1 [Example 135, 7-Fluoro-2-piperazin-1-yl-4-thiazol-2-yl-quinazoline]
270 to 278	41		Cl.Fc1ccccc1-c1nc(N2CC3CNCC3C2)nc2ccccc12 (centres unmarked) [Example 39, 4-(2-Fluoro-phenyl)-2-(hexahydro-pyrrolo[3,4-c]pyrrol-2-yl)-quinazoline hydrochloride]
	36.4	27.6	C[C@@H]1CNCCN1c1nc(-c2c(F)cccc2F)c2ccc(F)cc2n1 [Example 104, R-4-(2,6-Difluoro-phenyl)-7-fluoro-2-(2-methyl-piperazin-1-yl)-quinazoline]
	30	4.8	Fc1cccc(F)c1-c1nc(N2CCNCC2)nc2ccc(Cl)cc12 [Example 131, 4-(2,6-Difluoro-phenyl)-6-chloro-2-piperazin-1-yl-quinazoline]
	18.9	69.3	C[C@H]1CNCCN1c1nc(-c2cccc(F)c2F)c2ccccc2n1 [Example 88, S-4-(2,3-Difluoro-phenyl)-2-(2-methyl-piperazin-1-yl)-quinazoline]
	14.4	88.6	C[C@@H]1CNCCN1c1nc(-c2c(F)cccc2F)c2ccccc2n1 [Example 86, R-4-(2,6-Difluoro-phenyl)-2-(2-methyl-piperazin-1-yl)-quinazoline]
	13.9	30.4	N[C@H]1CCN(c2nc(-c3cccc(F)c3F)c3ccc(F)cc3n2)C1 [Example 109, S-1-[4-(2,3-Difluoro-phenyl)-7-fluoro-quinazolin-2-yl]-pyrrolidin-3-yl-amine]
	12.2	70.8	N[C@H]1CCN(c2nc(-c3c(F)cccc3F)c3ccccc3n2)C1 [Example 96, S-1-[4-(2,6-Difluoro-phenyl)-quinazolin-2-yl]-pyrrolidin-3-ylamine]
193 to 194	4.8		CC(C)c1nc(N2CCCNCC2)nc2ccccc12.Cl [Example 8, 2-[1,4]Diazepan-1-yl-4-isopropyl-quinazoline hydrochloride]
154 to 157	4.6		C[C@H]1CNCCN1c1nc(-c2ccccc2)c2ccccc2n1.Cl [Example 15, (S)-(+)-2-(2-Methyl-piperazin-1-yl)-4-phenyl-quinazoline hydrochloride]
266 to 268	4		Cl.Fc1cccc(Cl)c1-c1nc(N2CCNCC2)nc2ccccc12 [Example 36, 4-(2-Chloro-6-fluoro-phenyl)-2-piperazin-1-yl-quinazoline hydrochloride]
285 to 287	3.8		Cl.N[C@H]1CCN(c2nc(-c3ccccc3F)c3ccccc3n2)C1 [Example 34, (S)-(+)-1-[4-(2-Fluoro-phenyl)-quinazolin-2-yl]-pyrrolidin-3-ylamine hydrochloride]
190 to 192	3.7		Cl.Fc1ccccc1-c1nc(N2CCCNCC2)nc2ccccc12 [Example 21, 2-[1,4]Diazepan-1-yl-4-(2-fluoro-phenyl)-quinazoline hydrochloride]
273 to 276	3		Cl.Fc1cccc(-c2nc(N3CCNCC3)nc3ccccc23)c1F [Example 37, 4-(2,3-Difluoro-phenyl)-2-piperazin-1-yl-quinazoline hydrochloride]
